Experimental data reported in patent US9145399B2, “Substituted bicyclic triazole derivatives as gamma secretase modulators” (Janssen Pharmaceuticals, Inc., priority 2010, dated 2015).
Where a name gives a salt, the structure may show the parent alone.

What was measured:
Aβtotal = assay: Screening for γ-secretase-modulating activity in SKNBE2 cells carrying APP 695 wild type: Aβtotal in cell supernatant (Alphalisa); assay type: cell-based; conditions: overnight incubation
Experimental: (§1) Pharmacology A) Screening of the Compounds of the Invention for γ-Secretase-Modulating Activity
(§2) Screening was carried out using SKNBE2 cells carrying the APP 695—wild type, grown in Dulbecco's Modified Eagle's Medium/Nutrient mixture F-12 (DMEM/NUT-mix F-12) (HAM) provided by Invitrogen (cat no. 10371-029) containing 5% Serum/Fe supplemented with 1% non-essential amino acids, 1-glutamine 2 mM, Hepes 15 mM, penicillin 50 U/ml (units/ml) en streptomycin 50 μg/ml. Cells were grown to near confluency.
(§3) The screening was performed using a modification of the assay as described in Citron et al (1997) Nature Medicine 3: 67. Briefly, cells were plated in a 384-well plate at 10^4 cells/well in Ultraculture (Lonza, BE12-725F) supplemented with 1% glutamine (Invitrogen, 25030-024), 1% non-essential amino acid (NEAA), penicillin 50 U/ml en streptomycin 50 μg/ml in the presence of test compound at different test concentrations. The cell/compound mixture was incubated overnight at 37° C., 5% CO2. The next day the media were assayed by two sandwich immuno-assays, for Aβ42 and Aβtotal.
(§4) Aβtotal and Aβ42 concentrations were quantified in the cell supernatant using the Aphalisa technology (Perkin Elmer). Alphalisa is a sandwich assay using biotinylated antibody attached to streptavidin coated donorbeads and antibody conjugated to acceptor beads. In the presence of antigen, the beads come into close proximity. The excitation of the donor beads provokes the release of singlet oxygen molecules that trigger a cascade of energy transfer in the acceptor beads, resulting in light emission. To quantify the amount of Aβ42 in the cell supernatant, monoclonal antibody specific to the C-terminus of Aβ42 (JRF/cAβ42/26) was coupled to the receptor beads and biotinylated antibody specific to the N-terminus of Aβ (JRF/AβN/25) was used to react with the donor beads. T quantify the amount of Aβtotal in the cell supernatant, monoclonal antibody specific to the N-terminus of Aβ (JRF/AβN/25) was coupled to the receptor beads and biotinylated antibody specific to the mid region of Aβ (biotinylated 4G8) was used to react with the donor beads.
(§5) To obtain the values reported in Table 3, the data are calculated as percentage of the maximum amount of amyloid Beta 42 measured in the absence of the test compound. The sigmoidal dose response curves were analyzed using non-linear regression analysis with percentage of the control plotted against the log concentration of the compound. A 4-parameter equation was used to determine the IC50.

Aβ42 = assay: Screening for γ-secretase-modulating activity in SKNBE2 cells carrying APP 695 wild type: Aβ42 in cell supernatant (Alphalisa); assay type: cell-based; conditions: overnight incubation
Experimental: as §1, §2, §3, §4, §5

[1] = Homo sapiens, SKNBE2, SKNBE2 cells carrying APP 695 wild type
[2] = SKNBE2 cells carrying APP 695 wild type

Compound | IC50 (Aβtotal; Homo sapiens) [nM] | IC50 (Aβ42; [1]) [nM] | IC50 (Aβtotal) [nM] | IC50 (Aβ42; [2]) [nM]
COc1cc(Nc2nc3c(-c4ccc(F)cc4C(F)(F)F)cccn3n2)ccc1-n1cnc(C)n1 [Compound 4, 8-[4-fluoro-2-(trifluoromethyl)phenyl]-N-[3-methoxy-4-(3-methyl-1H-1,2,4-triazol-1-yl)phenyl]-[1,2,4]triazolo[1,5-a]pyridin-2-amine] | > 10000 | 22 |  | 
COc1cc(Nc2nc3n(n2)CCCC3c2ccc(F)cc2)ccc1-n1cnc(C)c1 (stereo not drawn) [Compound 5, 8-(4-fluorophenyl)-5,6,7,8-tetrahydro-N-[3-methoxy-4-(4-methyl-1H-imidazol-1-yl)phenyl]-[1,2,4]triazolo[1,5-a]pyridin-2-amine] | > 10000 | 18 |  | 
COc1cc(Nc2nc3c(-c4ccc(F)cc4C)nccn3n2)ccc1-n1cnc(C)c1 [Compound 10, 8-(4-fluoro-2-methylphenyl)-N-[3-methoxy-4-(4-methyl-1H-imidazol-1-yl)phenyl]-[1,2,4]triazolo[1,5-a]pyrazin-2-amine] | > 10000 | 9 |  | 
COc1nc(Nc2nc3n(n2)CCCC3c2ccc(F)cc2)ccc1-c1ccnc(C)c1 (stereo not drawn) [Compound 16, 8-(4-fluorophenyl)-5,6,7,8-tetrahydro-N-(2-methoxy-2′-methyl[3,4′-bipyridin]-6-yl)-[1,2,4]triazolo[1,5-a]pyridin-2-amine] | > 10000 | 363 |  | 
COc1nc(Nc2nc3n(n2)CCCC3c2ccccc2C(F)(F)F)ccc1-n1cnc(C)c1 (stereo not drawn) [Compound 17, 5,6,7,8-tetrahydro-N-[6-methoxy-5-(4-methyl-1H-imidazol-1-yl)-2-pyridinyl]-8-[2-(trifluoromethyl)phenyl]-[1,2,4]triazolo[1,5-a]pyridin-2-amine] | > 10000 | 295 |  | 
COc1nc(Nc2nc3n(n2)CCCC3c2ccccc2Cl)ccc1-n1cnc(C)c1 (stereo not drawn) [Compound 18, 8-(2-chlorophenyl)-5,6,7,8-tetrahydro-N-[6-methoxy-5-(4-methyl-1H-imidazol-1-yl)-2-pyridinyl]-[1,2,4]triazolo[1,5-a]pyridin-2-amine] | > 10000 | 112 |  | 
COc1cc(Nc2nc3c(-c4ccc(F)cc4C)cccn3n2)ccc1-n1cnc(C)c1 [Compound 19, 8-(4-fluoro-2-methylphenyl)-N-[3-methoxy-4-(4-methyl-1H-imidazol-1-yl)phenyl]-[1,2,4]triazolo[1,5-a]pyridin-2-amine] | 3720 | 4 |  | 
COc1cc(Nc2nc3cc(-c4ccccc4C(F)(F)F)ccn3n2)ccc1-n1cnc(C)c1 [Compound 21, N-[3-methoxy-4-(4-methyl-1H-imidazol-1-yl)phenyl]-7-[2-(trifluoromethyl)phenyl]-[1,2,4]triazolo[1,5-a]pyridin-2-amine] | > 10000 | 115 |  | 
Cc1ncoc1-c1ccc(Nc2nc3c(-c4ccccc4C(F)(F)F)cccn3n2)cc1 [Compound 24, N-[4-(4-methyl-5-oxazolyl)phenyl]-8-[2-(trifluoromethyl)phenyl]-[1,2,4]triazolo[1,5-a]pyridin-2-amine] | > 10000 | 126 |  | 
COc1cc(Nc2nc3n(n2)CCCC3c2ccccc2Cl)ccc1-n1cnc(C)c1 (stereo not drawn) [Compound 27, 8-(2-chlorophenyl)-5,6,7,8-tetrahydro-N-[3-methoxy-4-(4-methyl-1H-imidazol-1-yl)phenyl]-[1,2,4]triazolo[1,5-a]pyridin-2-amine] | 8510 | 14 |  | 
COc1cc(N(C)c2nc3n(n2)CCCC3c2ccccc2C(F)(F)F)ccc1-n1cnc(C)c1 (stereo not drawn) [Compound 33, 5,6,7,8-tetrahydro-N-[3-methoxy-4-(4-methyl-1H-imidazol-1-yl)phenyl]-N-methyl-8-[2-(trifluoromethyl)phenyl]-[1,2,4]triazolo[1,5-a]pyridin-2-amine HCl] | > 10000 | 4470 |  | 
COc1cccc(C2CCCn3nc(Nc4ccc(-n5cnc(C)c5)c(OC)c4)nc32)c1 (stereo not drawn) [Compound 35, 5,6,7,8-tetrahydro-N-[3-methoxy-4-(4-methyl-1H-imidazol-1-yl)phenyl]-8-(3-methoxyphenyl)-[1,2,4]triazolo[1,5-a]pyridin-2-amine.2HCl.H2O] |  |  | > 10000 | 31
COc1cc(C(=O)Nc2nc3n(n2)CCCC3c2ccc(F)cc2)ccc1-n1cnc(C)c1 (stereo not drawn) [Compound 36, N-[8-(4-fluorophenyl)-5,6,7,8-tetrahydro[1,2,4]triazolo[1,5-a]pyridin-2-yl]-3-methoxy-4-(4-methyl-1H-imidazol-1-yl)-benzamide] | > 10000 | 501 |  | 
COc1cccc(C2CCCn3nc(Nc4ccc(-c5ccnc(C)c5)c(OC)c4)nc32)c1 (stereo not drawn) [Compound 40, 5,6,7,8-tetrahydro-N-[3-methoxy-4-(2-methyl-4-pyridinyl)phenyl]-8-(3-methoxyphenyl)-[1,2,4]triazolo[1,5-a]pyridin-2-amine.1.8 HCl.0.9H2O] |  |  | > 10000 | 39
Cc1cc(-c2ccc(Nc3nc4n(n3)CCCC4c3ccccc3C(F)(F)F)cc2)c(C)cn1 (stereo not drawn) [Compound 45, N-[4-(2,5-dimethyl-4-pyridinyl)phenyl]-5,6,7,8-tetrahydro-8-[2-(trifluoromethyl)phenyl]-[1,2,4]triazolo[1,5-a]pyridin-2-amine] | > 10000 | 145 |  | 
COc1cc(Nc2nc3n(n2)CCC(c2ccccc2C(F)(F)F)C3)ccc1-n1cnc(C)c1 (stereo not drawn) [Compound 51, 5,6,7,8-tetrahydro-N-[3-methoxy-4-(4-methyl-1H-imidazol-1-yl)phenyl]-7-[2-(trifluoromethyl)phenyl]-[1,2,4]triazolo[1,5-a]pyridin-2-amine] | > 10000 | 62 |  | 
COc1cc(Nc2nc3n(n2)CCC(c2ccccc2C(F)(F)F)C3)ccc1-c1ccnc(C)c1 (stereo not drawn) [Compound 62, 5,6,7,8-tetrahydro-N-[3-methoxy-4-(2-methyl-4-pyridinyl)phenyl]-7-[2-(trifluoromethyl)phenyl]-[1,2,4]triazolo[1,5-a]pyridin-2-amine HCl] | > 10000 | 123 |  | 
COc1cc(Nc2nc3c(-c4cc(C(F)(F)F)ccc4F)cccn3n2)ccc1-n1cnc(C)c1 [Compound 63, 8-[2-fluoro-5-(trifluoromethyl)phenyl]-N-[3-methoxy-4-(4-methyl-1H-imidazol-1-yl)phenyl]-[1,2,4]triazolo[1,5-a]pyridin-2-amine] | 8130 | 19 |  | 
COc1cc(NC(=O)c2nc3c(-c4ccccc4Cl)cccn3n2)ccc1-n1cnc(C)c1 [Compound 72, 8-(2-chlorophenyl)-N-[3-methoxy-4-(4-methyl-1H-imidazol-1-yl)phenyl]-[1,2,4]triazolo[1,5-a]pyridine-2-carboxamide] | 4570 | 23 |  | 
COc1cc(Nc2nc3c(-c4ccc(F)cc4)c(C)ccn3n2)ccc1-c1ccnc(C)c1 [Compound 74, 8-(4-fluorophenyl)-N-[3-methoxy-4-(2-methyl-4-pyridinyl)phenyl]-7-methyl-[1,2,4]triazolo[1,5-a]pyridin-2-amine] | 7410 | 15 |  | 
Cc1cc(-c2ccc(Nc3nc4n(n3)CCOC4c3ccccc3C(F)(F)F)cc2)ccn1 (stereo not drawn) [Compound 85, 5,6-dihydro-N-[4-(2-methyl-4-pyridinyl)phenyl]-8-[2-(trifluoromethyl)phenyl]-8H-[1,2,4]triazolo[5,1-c][1,4]oxazin-2-amine] | > 10000 | 44 |  | 
Cc1cc(-c2ccc(Nc3nc4n(n3)CCOC4c3ccccc3C(F)(F)F)cc2F)ccn1 (stereo not drawn) [Compound 86, N-[3-fluoro-4-(2-methyl-4-pyridinyl)phenyl]-5,6-dihydro-8-[2-(trifluoromethyl)phenyl]-8H-[1,2,4]triazolo[5,1-c][1,4]oxazin-2-amine] | > 10000 | 48 |  | 
Cc1cc(-c2ccc(Nc3nc4n(n3)CCOC4c3ccccc3Cl)cc2F)ccn1 (stereo not drawn) [Compound 88, 8-(2-chlorophenyl)-N-[3-fluoro-4-(2-methyl-4-pyridinyl)phenyl]-5,6-dihydro-8H-[1,2,4]triazolo[5,1-c][1,4]oxazin-2-amine] | 9330 | 36 |  | 
COc1cc(Nc2nc3n(n2)CCCC3c2ccc(C(F)(F)F)cc2)ccc1-c1ccnc(C)c1 (stereo not drawn) [Compound 89, 5,6,7,8-tetrahydro-N-[3-methoxy-4-(2-methyl-4-pyridinyl)phenyl]-8-[4-(trifluoromethyl)phenyl]-[1,2,4]triazolo[1,5-a]pyridin-2-amine] | 9120 | 32 |  | 
